Calls of active or inactive are those of the source.
Key:
[1] = biological target: T1, Calpain-2 catalytic subunit (Sus scrofa, UniProt P43367); assay: pig calpain II inhibitor potency, dose response, biochemical, fluorogenic peptide substrate (AID 1420); format: functional
T1 sequence (P43367 whole entry): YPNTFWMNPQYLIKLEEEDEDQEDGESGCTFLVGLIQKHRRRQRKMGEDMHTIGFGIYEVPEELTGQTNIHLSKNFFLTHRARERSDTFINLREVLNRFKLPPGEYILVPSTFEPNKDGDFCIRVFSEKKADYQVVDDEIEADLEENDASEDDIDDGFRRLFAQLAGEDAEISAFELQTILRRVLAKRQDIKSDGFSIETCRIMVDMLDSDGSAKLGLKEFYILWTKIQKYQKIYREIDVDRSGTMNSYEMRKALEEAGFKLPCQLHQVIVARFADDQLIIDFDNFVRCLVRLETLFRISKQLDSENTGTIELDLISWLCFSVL

[2] = biological target: Eukaryotic translation initiation factor 4E (Mus musculus, UniProt P63073); assay: eIF4E–eIF4G protein interaction inhibitors, dose response, biochemical, TR-FRET (AID 855); format: functional;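 further: potency for disrupting eIF4E binding to eIF4GI seen as loss of FRET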
[3] = biological target: T2, Small ubiquitin-related modifier 1 (Homo sapiens, UniProt P63165); assay: inhibitors of SUMO1 partner interactions, dose response, biochemical, FRET (AID 624383); format: functional; conditions: read-out: IC50_Mean
[4] = inhibitors of Bluetongue virus cytopathic effect, confirmation, arbovirus, BSR cells (AID 1250); format: functional;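 further: protection from viral cytopathic effect measured as cell viability by ATP luminescence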
[5] = biological target: Dual specificity protein phosphatase 6 (Rattus norvegicus, UniProt Q64346); assay: MKP-3 phosphatase inhibitors, primary screen, biochemical, rat enzyme, in vitro (AID 425)
[6] = biological target: T3, Dual specificity protein phosphatase 3 (Homo sapiens, UniProt P51452); assay: VHR1 phosphatase inhibitors, primary screen, biochemical, absorbance, uHTS (AID 1654)
[7] = biological target: T2, Small ubiquitin-related modifier 1; assay: inhibitors of SUMO1 peptide binding, dose response, biochemical, fluorescence polarization, uHTS hits (AID 624382); format: functional; conditions: read-out: IC50_Mean
[8] = biological target: T3, Dual specificity protein phosphatase 3; assay: VHR1 phosphatase inhibitors, biochemical (AID 1878)
[9] = inhibitors of SNCA 5'UTR-driven reporter translation, confirmation, H4 neuroglioma cells, luminescence (AID 1988); format: functional, cell-based
[10] = biological target: Tumor necrosis factor (Homo sapiens, UniProt P01375); assay: TNFa-triggered NF-kB activation inhibitors, SAR follow-up, cell-based, revised (AID 2337); format: functional
[11] = system: HEK293; assay: cells; conditions: Homo sapiens;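 further: cells exposed to compound for 14 hours overnight before viability readout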
[12] = inhibitors of firefly luciferase expression or activity, dose response, H4 neuroglioma cells, luminescence (AID 1990); format: functional, cell-based
[13] = biological target: Nucleotide-binding oligomerization domain-containing protein 1 (Homo sapiens, UniProt Q9Y239); assay: NOD1 signaling inhibitors, SAR follow-up, revised (AID 2333); format: functional
[14] = Luminescence Cell-Based Dose Response HTS to Identify Inhibitors of 5'UTR Stem-Loop Driven Prion Protein mRNA Translation in H4 Neuroglioblastoma Cells. [Related pubchem assays: 1827 (Project Summary), 1813 (Primary HTS)]; format: functional
[15] = biological target: Sphingosine 1-phosphate receptor 4 (Homo sapiens, UniProt O95977); assay: Fluorescence dose response cell-based high throughput screening assay for agonists of the Sphingosine 1-Phosphate Receptor 4 (S1P4). [Related pubchem assays: 1509 (Primary screen.), 1523 (Confirmation screen in triplicates.)]; format: functional
[16] = biological target: Sphingosine 1-phosphate receptor 1 (Homo sapiens, UniProt P21453); assay: Fluorescence-based counterscreen assay for S1P4 agonists: Cell-based dose response high throughput screening assay to identify agonists of the Sphingosine 1-Phosphate Receptor 1 (S1P1). [Related pubchem assays (depositor defined):AID1509, AID1523, AID1801, AID463107, AID463118, AID463119, AID463122, AID463123, AID463129, AID463225, AID504400, AID504460]; format: functional
[17] = biological target: T4, Kappa-type opioid receptor (Homo sapiens, UniProt P41145); assay: KOR agonist analogs, imaging readout, SAR follow-up, image-based (AID 2359); format: functional
[18] = biological target: T4, Kappa-type opioid receptor; assay: KOR antagonists by imaging, SAR follow-up, image-based (AID 2348); format: functional
[19] = biological target: T5, Mu-type opioid receptor (Homo sapiens, UniProt P35372); assay: MOR agonists by imaging, SAR follow-up, image-based (AID 2352); format: functional
[20] = biological target: T4, Kappa-type opioid receptor; assay: SAR analysis of small molecule agonists of the kappa opioid receptor via a luminescent beta-arrestin assay. [Related pubchem assays (depositor defined):AID1777, AID1786, AID1966, AID2133, AID2136, AID2348, AID2352, AID2357, AID2359, AID2370, AID2420, AID2478, AID2491, AID2492, AID2493, AID2497, AID2498, AID2500, AID449737, AID488822, AID488842]; format: functional
[21] = biological target: T5, Mu-type opioid receptor; assay: MOR antagonists, SAR follow-up, image-based (AID 2420); format: functional;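 further: compounds added before stimulation of receptor with agonist DAMGO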
[22] = biological target: T6, Delta-type opioid receptor (Homo sapiens, UniProt P41143); assay: DOR antagonists, SAR follow-up, image-based (AID 2357); format: functional
[23] = biological target: T6, Delta-type opioid receptor; assay: DOR agonists, SAR follow-up, image-based (AID 2370); format: functional
[24] = biological target: T4, Kappa-type opioid receptor; assay: SAR analysis of small molecule agonists of the kappa opioid receptor via a luminescent beta-arrestin assay - Set 3. [Related pubchem assays (depositor defined):AID1777, AID1785, AID1786, AID1966, AID2133, AID2136, AID2284, AID2500]; format: functional

T4 sequence (P41145 whole entry): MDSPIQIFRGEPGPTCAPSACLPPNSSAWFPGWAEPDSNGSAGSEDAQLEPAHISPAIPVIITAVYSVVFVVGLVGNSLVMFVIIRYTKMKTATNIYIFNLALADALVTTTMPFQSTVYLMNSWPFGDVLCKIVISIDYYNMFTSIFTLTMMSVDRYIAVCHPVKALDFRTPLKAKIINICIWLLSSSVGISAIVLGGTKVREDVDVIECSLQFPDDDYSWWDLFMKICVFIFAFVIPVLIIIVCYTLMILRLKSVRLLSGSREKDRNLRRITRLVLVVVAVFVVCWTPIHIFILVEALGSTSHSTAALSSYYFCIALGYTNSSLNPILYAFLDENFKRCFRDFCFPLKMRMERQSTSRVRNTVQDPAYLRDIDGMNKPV
T5 sequence (P35372 whole entry): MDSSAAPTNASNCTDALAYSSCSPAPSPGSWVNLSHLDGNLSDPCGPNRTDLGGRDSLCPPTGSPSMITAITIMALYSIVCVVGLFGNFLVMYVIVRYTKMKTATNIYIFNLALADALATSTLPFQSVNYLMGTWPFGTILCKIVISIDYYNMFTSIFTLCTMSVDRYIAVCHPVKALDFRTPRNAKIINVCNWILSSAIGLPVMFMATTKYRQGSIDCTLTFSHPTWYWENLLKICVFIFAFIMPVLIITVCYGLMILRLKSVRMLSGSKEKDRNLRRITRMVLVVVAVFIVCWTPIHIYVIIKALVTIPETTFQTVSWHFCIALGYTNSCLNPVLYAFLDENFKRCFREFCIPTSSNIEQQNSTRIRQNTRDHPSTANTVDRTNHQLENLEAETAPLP
T3 sequence (P51452 whole entry): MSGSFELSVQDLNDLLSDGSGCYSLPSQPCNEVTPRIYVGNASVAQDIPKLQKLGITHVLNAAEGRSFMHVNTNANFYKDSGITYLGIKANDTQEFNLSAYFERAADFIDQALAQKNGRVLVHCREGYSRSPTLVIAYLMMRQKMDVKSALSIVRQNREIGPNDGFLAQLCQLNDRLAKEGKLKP
T6 sequence (P41143 whole entry): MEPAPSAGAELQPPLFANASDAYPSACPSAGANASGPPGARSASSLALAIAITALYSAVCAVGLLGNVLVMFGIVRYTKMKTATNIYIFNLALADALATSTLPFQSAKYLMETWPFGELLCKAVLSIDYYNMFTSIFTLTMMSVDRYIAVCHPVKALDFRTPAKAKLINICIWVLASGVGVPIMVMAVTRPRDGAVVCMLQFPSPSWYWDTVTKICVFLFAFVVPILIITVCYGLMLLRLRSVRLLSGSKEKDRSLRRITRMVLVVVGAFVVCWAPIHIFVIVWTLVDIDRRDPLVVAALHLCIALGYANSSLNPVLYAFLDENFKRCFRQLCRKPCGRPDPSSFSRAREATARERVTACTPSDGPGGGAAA
T2 sequence (P63165 whole entry): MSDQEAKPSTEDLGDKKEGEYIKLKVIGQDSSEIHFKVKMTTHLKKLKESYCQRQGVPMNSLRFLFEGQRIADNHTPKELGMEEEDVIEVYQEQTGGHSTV
Sphingosine 1-phosphate receptor 4, sequence (O95977 whole entry): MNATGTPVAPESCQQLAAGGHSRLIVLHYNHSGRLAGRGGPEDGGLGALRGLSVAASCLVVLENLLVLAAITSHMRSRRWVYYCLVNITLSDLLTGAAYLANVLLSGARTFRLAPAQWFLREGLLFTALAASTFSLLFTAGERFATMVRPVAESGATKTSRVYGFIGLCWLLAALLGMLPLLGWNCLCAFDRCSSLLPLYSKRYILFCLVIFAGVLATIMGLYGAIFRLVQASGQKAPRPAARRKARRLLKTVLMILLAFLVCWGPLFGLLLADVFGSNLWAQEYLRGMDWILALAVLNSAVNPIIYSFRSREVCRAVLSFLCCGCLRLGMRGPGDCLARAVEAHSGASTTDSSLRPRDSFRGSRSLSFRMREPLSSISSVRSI
Eukaryotic translation initiation factor 4E, sequence (P63073 whole entry): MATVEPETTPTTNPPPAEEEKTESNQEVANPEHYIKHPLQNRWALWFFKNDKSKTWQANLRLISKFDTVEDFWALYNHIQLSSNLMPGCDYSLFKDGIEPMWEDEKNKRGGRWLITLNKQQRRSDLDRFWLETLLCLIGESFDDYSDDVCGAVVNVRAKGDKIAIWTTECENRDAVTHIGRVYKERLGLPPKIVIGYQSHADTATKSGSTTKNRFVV
Dual specificity protein phosphatase 6, sequence (Q64346 whole entry): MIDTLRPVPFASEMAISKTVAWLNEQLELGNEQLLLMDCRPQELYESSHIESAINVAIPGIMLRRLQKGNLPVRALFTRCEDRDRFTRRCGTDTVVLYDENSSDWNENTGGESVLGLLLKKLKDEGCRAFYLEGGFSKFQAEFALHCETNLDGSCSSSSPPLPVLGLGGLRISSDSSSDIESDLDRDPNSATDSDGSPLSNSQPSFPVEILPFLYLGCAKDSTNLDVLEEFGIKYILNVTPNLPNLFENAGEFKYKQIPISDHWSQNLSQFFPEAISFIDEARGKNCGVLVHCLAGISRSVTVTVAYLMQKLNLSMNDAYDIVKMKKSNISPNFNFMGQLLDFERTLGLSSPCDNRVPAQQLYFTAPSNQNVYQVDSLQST
Tumor necrosis factor, sequence (P01375 whole entry): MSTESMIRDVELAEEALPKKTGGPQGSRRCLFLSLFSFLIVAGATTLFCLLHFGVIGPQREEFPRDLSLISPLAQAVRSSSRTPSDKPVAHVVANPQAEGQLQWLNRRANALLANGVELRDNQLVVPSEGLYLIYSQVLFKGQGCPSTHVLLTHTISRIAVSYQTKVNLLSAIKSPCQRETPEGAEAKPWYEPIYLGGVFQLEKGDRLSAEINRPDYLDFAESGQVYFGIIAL
Sphingosine 1-phosphate receptor 1, sequence (P21453 whole entry): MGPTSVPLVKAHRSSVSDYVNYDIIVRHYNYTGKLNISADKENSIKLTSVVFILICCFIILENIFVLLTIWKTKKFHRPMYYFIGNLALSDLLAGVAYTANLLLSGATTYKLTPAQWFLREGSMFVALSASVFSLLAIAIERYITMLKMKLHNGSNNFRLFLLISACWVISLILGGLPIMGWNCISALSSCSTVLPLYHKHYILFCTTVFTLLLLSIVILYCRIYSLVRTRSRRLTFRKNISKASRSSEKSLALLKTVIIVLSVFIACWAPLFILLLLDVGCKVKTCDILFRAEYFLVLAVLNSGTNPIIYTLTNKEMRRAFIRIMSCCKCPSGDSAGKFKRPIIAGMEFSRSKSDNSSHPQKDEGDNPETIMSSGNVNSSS
Nucleotide-binding oligomerization domain-containing protein 1, sequence (Q9Y239 whole entry, the tested form may be a part): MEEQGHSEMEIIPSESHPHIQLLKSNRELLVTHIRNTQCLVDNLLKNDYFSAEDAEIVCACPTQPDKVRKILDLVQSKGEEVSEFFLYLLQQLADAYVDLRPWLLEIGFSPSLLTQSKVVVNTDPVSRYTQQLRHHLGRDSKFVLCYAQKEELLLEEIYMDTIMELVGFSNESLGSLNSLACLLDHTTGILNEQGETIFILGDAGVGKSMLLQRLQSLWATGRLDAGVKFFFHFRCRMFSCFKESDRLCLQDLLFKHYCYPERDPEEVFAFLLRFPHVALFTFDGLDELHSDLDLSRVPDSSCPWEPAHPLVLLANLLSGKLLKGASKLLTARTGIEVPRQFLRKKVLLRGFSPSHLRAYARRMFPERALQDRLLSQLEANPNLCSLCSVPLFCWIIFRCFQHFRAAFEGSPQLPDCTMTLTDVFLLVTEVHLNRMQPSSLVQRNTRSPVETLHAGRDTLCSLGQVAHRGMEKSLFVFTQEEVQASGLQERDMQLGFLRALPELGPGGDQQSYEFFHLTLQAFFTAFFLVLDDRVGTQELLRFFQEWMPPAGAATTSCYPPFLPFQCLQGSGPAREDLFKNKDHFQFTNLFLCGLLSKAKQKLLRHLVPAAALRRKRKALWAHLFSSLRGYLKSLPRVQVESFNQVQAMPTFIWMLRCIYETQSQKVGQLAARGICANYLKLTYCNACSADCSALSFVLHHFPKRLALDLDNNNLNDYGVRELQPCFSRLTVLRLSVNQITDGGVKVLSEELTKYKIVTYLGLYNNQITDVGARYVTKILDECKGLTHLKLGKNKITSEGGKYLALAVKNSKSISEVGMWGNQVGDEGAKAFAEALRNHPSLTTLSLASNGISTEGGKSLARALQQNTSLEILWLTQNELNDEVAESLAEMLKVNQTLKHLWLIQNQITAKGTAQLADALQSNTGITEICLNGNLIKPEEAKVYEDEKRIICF

For `O=C(CSc1nc(-c2ccc(F)cc2)nc2c1Cc1ccccc1O2)Nc1ccc(C(=O)O)cc1`, the IC50 [1] was > 50 µM (not active), the IC50 [2] was 50 µM (inactive) and the IC50 [3] was 3.36 µM (active). The IC50 [4] was 23 µM (active), the IC50 [5] was 10.1 µM (active) and the IC50 [6] was 5.02 µM (active). The IC50 [7] was > 66.6 µM (inactive) and the IC50 [8] was 4.04 µM (active).
For `COCCn1c(C)cc(C(=O)COC(=O)c2cccc(O)c2)c1C`, the EC50 [9] was 0.137 µM (active), the IC50 [10] was 0.704 µM (active) and the IC50 [11] was > 20 µM (inactive). For the same compound, the EC50 [12] was < 0.1 µM (active), the IC50 [13] was 2.5 µM (active) and the EC50 [14] was 0.121 µM (active).
With `N#Cc1cc2c(=O)n3ccccc3nc2n(-c2ccccc2Cl)c1=O` the EC50 [9] was 11 µM (active), the EC50 [15] was 2.88 µM (active) and the EC50 [16] was 10.4 µM (inactive). The EC50 [12] was > 120 µM (not active) and the EC50 [14] was > 120 µM (not active).
In the case of `O=C(c1ccccn1)N(Cc1ccco1)C1(C(=O)Nc2ccc(Br)cc2)CCCCC1`, the EC50 [17] is reported as 0.0983 µM (active), the IC50 [18] is reported as > 32 µM (inactive) and the EC50 [19] is reported as > 32 µM (inactive). For the same compound, the EC50 [20] was 0.423 µM (active), the IC50 [21] was > 32 µM (inactive) and the IC50 [22] was > 32 µM (inactive). For the same compound, the EC50 [23] was > 32 µM (inactive).
With `Clc1ccc(CSc2nnc(-c3ccncc3)n2Cc2ccco2)cc1Cl` the EC50 [24] was > 20 µM (inactive).
